From US20070253913A1, “Aerosol formulations for delivery of dihydroergotamine to the systemic circulation via pulmonary inhalation” (priority 2003, published 2007)
“And” between values parts separate entries of the source, which are not always exact repeats. Identical values can stand only once. Counter-ions that a name gives are not always drawn. Like-named read-outs stand apart in the source and are kept apart here.

Assays:
[1] = Powder stability with accelerated environmental aging, HPLC assay; format: physicochemical
Experimental: (§1) DHE particle were produced by the SEDS super critical fluid process as described by Palakadoty et al. (US Application 20030109421). The DHE particulate powder produced was assayed by HPLC to determine purity and the mass mean aerodynamic diameter was determined using an Aerosizer instrument under standard operating conditions known in the art. […] The DHE particulate powder was subject to standard accelerated aging conditions of: (i) 3 months at 40 degrees Celsius and 75% relative humidity; and (ii) 25 degrees Celsius and 60% relative humidity. The DHE particles were placed in a tightly sealed dark glass container and placed in the appropriate incubation ovens for the 3 month period. At the end of the three month period, purity and particle size were again assessed as discussed above.

[2] = Powder stability with accelerated environmental aging, particle size by Aerosizer; format: physicochemical; settings: MMAD
Experimental: as §1

[3] = Pharmacokinetics of DHE in dog serum after DPI inhalation vs intravenous bolus; format: in vivo, dogs; settings: for Tmax: dog serum, inhalation 1 mg DPI
Experimental: In this study, dogs were administered the DHE particles via the DPI format (total dose 1 mg) and by intravenous bolus (total dose 0.5 mg) and DHE levels were measured in dog serum at defined intervals.

[4] = cited from earlier work

Row | SMILES | HPLC Assay (%) ([1]; 3 Months @ 25 C./60% RH, sealed dark glass container) | HPLC Assay (%) ([1]; 3 Months @ 40 C./75% RH, sealed dark glass container) | HPLC Assay (%) ([1]; Initial, on production) | Particle Size (microns by Aerosizer) ([2]; 3 Months @ 25 C./60% RH) [microns] | Particle Size (microns by Aerosizer) ([2]; 3 Months @ 40 C./75% RH) [microns] | Particle Size (microns by Aerosizer) ([2]; Initial, on production) [microns] | Tmax ([3]; individual dogs) [min] | blood levels of DHE compared to intravenous delivery ([3]; dog, DPI 1 mg vs iv bolus 0.5 mg, FIG. 1) | time to measurable levels of DHE in the blood after inhalation ([3]; dog, DPI 1 mg, FIG. 1) [s] | bioavailability ([3]; dog, in vivo, dog, inhalation 1.0 mg vs iv bolus 0.5 mg, n=3, read-out: F (bioavailability) Average (%)) [%] | Tmax ([3]; dog, in vivo, inhaled or intranasal, 1 mg, individual dogs, read-out: Tmax (converted)) [min] | Tmax ([3]; dog, in vivo, inhaled or intranasal, 1 mg, n=3, read-out: Tmax Average (converted)) [min] | F (bioavailability) (%) ([3]; dog, inhalation 1.0 mg vs iv bolus 0.5 mg, individual dogs) | bioavailability, administered dose reaching the systemic circulation ([4]; in vivo) | bioavailability ([4]; pulmonary delivery)
1 | CN1C[C@H](C(=O)N[C@]2(C)O[C@@]3(O)[C@@H]4CCCN4C(=O)[C@H](Cc4ccccc4)N3C2=O)C[C@@H]2c3cccc4[nH]cc(c34)C[C@H]21 [DHE, dihydroergotamine] | 101.0 | 102.0 | 98.3 | 1.044 | 1.091 | 1.131 | 10 | maintained at higher levels over an extended period of time | ≤ 30 | 52 | 5 | 6.7 | 27% and 49% and 80% | 2-10% | –
2 | CN1C[C@H](C(=O)N[C@]2(C)O[C@@]3(O)[C@@H]4CCCN4C(=O)[C@H](Cc4ccccc4)N3C2=O)C=C2c3cccc4[nH]cc(c34)C[C@H]21 [ergotamine tartrate] | – | – | – | – | – | – | – | – | – | – | – | – | – | – | up to 92%
